ChEMBL document CHEMBL1201862, “PubChem BioAssay data set” (2004)
Active and inactive are the calls of the source.

Experiments:
Beta Lactamase = Beta Lactamase (Pseudomonas aeruginosa, UniProt Q932Y6);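 also: confirmatory high-throughput screen measuring VIM-2 metallo-beta-lactamase inhibition by epi-absorbance in dose response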
ORF 73 = ORF 73 (Human herpesvirus 8, UniProt O40947); assay: inhibitors of C-LANA binding to LBS DNA, dose response, biochemical, fluorescence polarization, cherry-picked samples (AID 504725); design: species or system Human gammaherpesvirus 8;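 also: fluorescence polarization of a labeled DNA duplex reporting LANA DNA binding; potency is for inhibitors that block LANA binding to the DNA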
Sequence of ORF 73 (O40947 whole entry): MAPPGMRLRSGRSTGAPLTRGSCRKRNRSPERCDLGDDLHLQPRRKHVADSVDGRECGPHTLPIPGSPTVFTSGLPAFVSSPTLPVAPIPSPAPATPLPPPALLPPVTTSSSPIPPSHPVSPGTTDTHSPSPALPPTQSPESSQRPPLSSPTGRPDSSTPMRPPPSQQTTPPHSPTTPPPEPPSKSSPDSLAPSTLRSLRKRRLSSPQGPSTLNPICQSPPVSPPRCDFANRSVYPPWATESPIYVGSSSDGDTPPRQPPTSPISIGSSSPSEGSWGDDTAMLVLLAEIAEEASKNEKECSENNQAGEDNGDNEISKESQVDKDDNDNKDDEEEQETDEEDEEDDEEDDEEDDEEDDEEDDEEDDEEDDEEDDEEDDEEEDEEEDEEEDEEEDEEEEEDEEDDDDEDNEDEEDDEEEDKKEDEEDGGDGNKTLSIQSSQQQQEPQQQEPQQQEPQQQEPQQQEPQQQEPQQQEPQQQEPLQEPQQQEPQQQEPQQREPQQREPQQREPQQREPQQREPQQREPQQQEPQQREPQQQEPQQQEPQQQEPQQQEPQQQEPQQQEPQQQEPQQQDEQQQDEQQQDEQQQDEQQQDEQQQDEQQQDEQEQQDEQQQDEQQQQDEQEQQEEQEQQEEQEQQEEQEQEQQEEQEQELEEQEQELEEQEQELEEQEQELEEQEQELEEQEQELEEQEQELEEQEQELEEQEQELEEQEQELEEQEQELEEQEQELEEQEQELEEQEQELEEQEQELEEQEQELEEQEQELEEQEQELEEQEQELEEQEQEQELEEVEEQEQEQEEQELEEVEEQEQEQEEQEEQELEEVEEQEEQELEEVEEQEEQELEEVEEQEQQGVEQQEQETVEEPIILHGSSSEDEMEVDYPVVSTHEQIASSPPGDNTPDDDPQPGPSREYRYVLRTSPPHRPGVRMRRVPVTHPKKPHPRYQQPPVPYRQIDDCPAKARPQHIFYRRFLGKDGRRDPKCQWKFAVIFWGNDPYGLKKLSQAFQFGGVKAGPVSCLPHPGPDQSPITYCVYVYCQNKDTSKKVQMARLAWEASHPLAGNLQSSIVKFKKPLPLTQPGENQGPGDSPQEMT

[1] = target: UDP-galactopyranose mutase (Mycobacterium tuberculosis, UniProt P9WIQ1); assay: Inhibitors of Mycobacterium tuberculosis UDP-galactopyranose mutase (UGM) enzyme Measured in Biochemical System Using Plate Reader - 2105-02_Inhibitor_Dose_CherryPick_Activity. [Related pubchem assays (depositor defined):AID504439]
Sequence of UDP-galactopyranose mutase (P9WIQ1 whole entry): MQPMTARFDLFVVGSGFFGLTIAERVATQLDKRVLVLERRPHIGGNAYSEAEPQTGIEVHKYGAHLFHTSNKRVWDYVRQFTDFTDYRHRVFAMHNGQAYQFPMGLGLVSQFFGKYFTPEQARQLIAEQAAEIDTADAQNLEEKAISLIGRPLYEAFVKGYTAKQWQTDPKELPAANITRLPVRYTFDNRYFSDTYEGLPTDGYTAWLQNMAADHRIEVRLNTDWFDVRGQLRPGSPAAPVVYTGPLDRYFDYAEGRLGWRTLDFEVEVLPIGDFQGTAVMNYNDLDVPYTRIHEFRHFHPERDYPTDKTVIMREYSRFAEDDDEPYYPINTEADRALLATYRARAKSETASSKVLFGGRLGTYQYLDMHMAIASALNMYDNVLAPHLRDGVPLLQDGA

Insulin-degrading enzyme [2] = target: T1, Insulin-degrading enzyme (Homo sapiens, UniProt P14735); assay: activators of recombinant IDE enzyme, dose response, counter-screen for IDE activator project, biochemical, fluorescence polarization (AID 588681)
T1 sequence (P14735 whole entry): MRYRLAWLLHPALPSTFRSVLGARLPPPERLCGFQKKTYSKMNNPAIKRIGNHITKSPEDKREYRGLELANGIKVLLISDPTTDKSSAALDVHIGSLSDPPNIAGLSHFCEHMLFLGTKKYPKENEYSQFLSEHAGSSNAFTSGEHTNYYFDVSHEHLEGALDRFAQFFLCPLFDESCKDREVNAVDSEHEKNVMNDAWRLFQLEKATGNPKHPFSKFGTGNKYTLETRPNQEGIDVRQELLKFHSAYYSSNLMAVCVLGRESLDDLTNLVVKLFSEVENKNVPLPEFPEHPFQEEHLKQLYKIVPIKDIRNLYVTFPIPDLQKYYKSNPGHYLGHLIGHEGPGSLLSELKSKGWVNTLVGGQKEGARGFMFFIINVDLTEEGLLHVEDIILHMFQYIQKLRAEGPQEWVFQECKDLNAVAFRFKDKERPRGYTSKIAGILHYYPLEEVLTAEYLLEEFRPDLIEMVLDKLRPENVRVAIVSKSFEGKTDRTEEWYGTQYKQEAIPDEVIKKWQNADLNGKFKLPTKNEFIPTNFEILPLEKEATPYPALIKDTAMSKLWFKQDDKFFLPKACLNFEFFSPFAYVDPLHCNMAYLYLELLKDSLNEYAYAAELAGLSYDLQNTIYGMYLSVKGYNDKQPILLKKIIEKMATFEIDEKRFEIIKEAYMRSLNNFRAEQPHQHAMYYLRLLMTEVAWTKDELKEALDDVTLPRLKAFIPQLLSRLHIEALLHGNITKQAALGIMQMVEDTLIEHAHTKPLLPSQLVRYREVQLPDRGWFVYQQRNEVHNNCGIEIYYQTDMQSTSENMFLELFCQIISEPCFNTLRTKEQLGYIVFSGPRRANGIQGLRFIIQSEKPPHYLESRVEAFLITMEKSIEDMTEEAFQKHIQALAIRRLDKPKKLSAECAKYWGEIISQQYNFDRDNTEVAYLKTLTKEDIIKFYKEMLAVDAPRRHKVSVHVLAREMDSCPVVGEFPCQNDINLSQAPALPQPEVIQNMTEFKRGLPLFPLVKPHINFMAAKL

Insulin-degrading enzyme [3] = target: T1, Insulin-degrading enzyme; assay: activators of endogenous IDE in HEK cells, dose response, cell-based, fluorescence polarization (AID 588439); format: functional
HEK293 [4] = assay: HEK cell cytotoxicity by LDH release, dose response, cytotoxicity control for IDE activator project, fluorescence, HEK cells (AID 588440); format: functional, cell-based; conditions: Homo sapiens;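 also: cytotoxicity by LDH release measuring loss of membrane integrity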
HEK293 [5] = assay: optical interference in Abeta FP readout, dose response, artefact control for IDE activator project, biochemical, fluorescence polarization (AID 588442); format: functional, cell-based; conditions: Homo sapiens
[6] = HepG2 cell cytotoxicity, dose response, cytotoxicity control, ATP luminescence, cherry-pick, set 6 (AID 1053125); format: functional, cell-based
[7] = CFTR ΔF508 corrector activity in bronchial cells, dose response, human bronchial epithelial cells, plate reader, cherry-pick, two tests (AID 743267); format: functional, cell-based
cells [8] = conditions: A549
HEK293 [9] = assay: cytotoxicity in HEK293T NF-kB-Luc cells, SAR follow-up, cytotoxicity control for NF-kB activator project, cell-based, resazurin fluorescence (AID 493251); format: functional; conditions: Homo sapiens
Jurkat [10] = assay: SAR Analysis of small molecule inhibitors of T-cell specific antigen receptor-induced NF-kB activation in a Jurkat cell line using a luminescence assay - Set 2. [Related pubchem assays (depositor defined):AID435003, AID435012, AID465]; format: functional, cell-based; conditions: Homo sapiens
HEK293 [11] = assay: SAR Analysis of small molecule inhibitors of T-cell specific antigen receptor-induced NF-kB activation in a HEK-293T cell line using a luminescence assay - Set 2. [Related pubchem assays (depositor defined):AID435003, AID435012, AID489026]; format: functional, cell-based; conditions: Homo sapiens
Escherichia coli [12] = assay: microbe, parasite or virus in culture
HEK293 [13] = assay: cells; conditions: Homo sapiens
HEK293 [14] = assay: cells; conditions: Homo sapiens; remark: listed apart in the source
[15] = growth induction of Burl-1 ts yeast mutant, dose response, counter-screen for SUMOylation pathway inhibitor project, whole organism, S. cerevisiae, luminescence (AID 463199); format: functional
Escherichia coli [16] = assay: microbe, parasite or virus in culture; remark: listed apart in the source
[17] = Luminescence Cell-Based Dose Retest to Confirm Inhibitors of Cancer Stem Cells. [Related pubchem assays (depositor defined):AID2717, AID2721]; format: functional; conditions: Homo sapiens
[18] = cytotoxicity in HMLE control line with eGFP shRNA, dose response, counter-screen for HMLE_sh_ECad selective toxicity project, cell-based, HMLE_sh_eGFP, luminescence (AID 463074); format: functional, Homo sapiens;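 also: HMLE human mammary epithelial cells expressing control shRNA against eGFP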
[19] = target: Potassium voltage-gated channel subfamily KQT member 2 (Rattus norvegicus, UniProt O88943); assay: KCNQ2 potassium channel inhibitors, dose response, cell-based, automated electrophysiology, set II, rat KCNQ2 (AID 588637); format: functional
Sequence of Potassium voltage-gated channel subfamily KQT member 2 (O88943 whole entry): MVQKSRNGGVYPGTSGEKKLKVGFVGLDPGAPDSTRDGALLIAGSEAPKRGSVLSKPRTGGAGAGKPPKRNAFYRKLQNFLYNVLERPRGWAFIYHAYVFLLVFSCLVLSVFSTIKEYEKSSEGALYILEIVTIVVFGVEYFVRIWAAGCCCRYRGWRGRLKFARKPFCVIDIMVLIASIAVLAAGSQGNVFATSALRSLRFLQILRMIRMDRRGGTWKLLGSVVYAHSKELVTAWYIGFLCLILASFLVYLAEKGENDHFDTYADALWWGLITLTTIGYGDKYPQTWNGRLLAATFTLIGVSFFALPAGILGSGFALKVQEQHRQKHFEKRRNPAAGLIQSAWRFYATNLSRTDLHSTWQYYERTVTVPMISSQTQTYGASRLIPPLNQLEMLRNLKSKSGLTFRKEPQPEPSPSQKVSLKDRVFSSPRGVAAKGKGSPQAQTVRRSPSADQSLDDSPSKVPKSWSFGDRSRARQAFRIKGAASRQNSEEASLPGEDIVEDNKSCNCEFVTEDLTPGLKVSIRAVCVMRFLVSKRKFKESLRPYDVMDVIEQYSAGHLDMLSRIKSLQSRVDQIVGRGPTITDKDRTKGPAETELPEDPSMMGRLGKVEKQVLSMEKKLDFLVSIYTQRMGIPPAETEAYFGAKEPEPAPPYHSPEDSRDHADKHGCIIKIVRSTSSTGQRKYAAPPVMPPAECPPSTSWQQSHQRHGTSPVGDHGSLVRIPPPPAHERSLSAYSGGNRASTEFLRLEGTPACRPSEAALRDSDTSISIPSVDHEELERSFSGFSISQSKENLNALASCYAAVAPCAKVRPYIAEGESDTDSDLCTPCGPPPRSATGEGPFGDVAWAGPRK

[20] = inhibitors of firefly luciferase expression or activity, dose response, H4 neuroglioma cells, luminescence (AID 1990); format: functional, cell-based
[21] = luciferase reporter signal reduction – luminescence, H4-C neuroglioblastoma cells, dose response (AID 2458); format: functional, cell-based;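 also: H4 neuroglioblastoma cells stably carrying a luciferase reporter gene fusion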
BJ [22] = assay: cytotoxicity toward BJ-TERT fibroblasts, dose response, cell-based, RAS-independent, luminescence (AID 1933); format: functional; conditions: Homo sapiens
cells [23] = format: functional, cell-based
[24] = Luminescence Cell-Based Dose Response HTS to Identify Inhibitors of 5'UTR Stem-Loop Driven Prion Protein mRNA Translation in H4 Neuroglioblastoma Cells. [Related pubchem assays: 1827 (Project Summary), 1813 (Primary HTS)]; format: functional
[25] = target: T2, Heat shock factor protein 1 (Mus musculus, UniProt P38532); assay: inhibition of MG132-induced HSE-luciferase signal, confirmation, cell-based, NIH3T3, luminescence, dose retest (AID 2382); format: functional;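 also: NIH3T3 fibroblasts with HSF1-driven luciferase reporter stressed by proteasome inhibitor MG132; luminescence from HSF1-driven luciferase expression after 8 hours of MG132 stress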
T2 sequence (P38532 whole entry): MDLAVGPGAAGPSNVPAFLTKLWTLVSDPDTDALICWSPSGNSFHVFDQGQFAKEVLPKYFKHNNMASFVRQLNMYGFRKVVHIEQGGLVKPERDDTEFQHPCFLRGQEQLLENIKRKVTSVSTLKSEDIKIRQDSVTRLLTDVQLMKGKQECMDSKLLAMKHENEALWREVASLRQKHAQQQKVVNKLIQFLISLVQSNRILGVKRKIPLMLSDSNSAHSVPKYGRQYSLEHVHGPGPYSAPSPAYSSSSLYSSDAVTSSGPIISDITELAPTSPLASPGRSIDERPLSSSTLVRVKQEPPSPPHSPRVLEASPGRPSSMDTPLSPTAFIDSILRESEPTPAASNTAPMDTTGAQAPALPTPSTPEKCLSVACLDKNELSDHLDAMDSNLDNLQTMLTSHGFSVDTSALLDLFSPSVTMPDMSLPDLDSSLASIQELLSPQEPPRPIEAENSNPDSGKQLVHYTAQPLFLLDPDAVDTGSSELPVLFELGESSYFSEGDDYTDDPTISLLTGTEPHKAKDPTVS

[26] = inhibitors of SNCA 5'UTR-driven reporter translation, confirmation, H4 neuroglioma cells, luminescence (AID 1988); format: functional, cell-based
BJ [27] = assay: cells; format: functional, cell-based; conditions: Homo sapiens
[28] = target: Luciferin 4-monooxygenase (Photinus pyralis, UniProt P08659); assay: firefly luciferase enzyme inhibitors, dose response, biochemical, luminescence (AID 1891)
Sequence of Luciferin 4-monooxygenase (P08659 whole entry): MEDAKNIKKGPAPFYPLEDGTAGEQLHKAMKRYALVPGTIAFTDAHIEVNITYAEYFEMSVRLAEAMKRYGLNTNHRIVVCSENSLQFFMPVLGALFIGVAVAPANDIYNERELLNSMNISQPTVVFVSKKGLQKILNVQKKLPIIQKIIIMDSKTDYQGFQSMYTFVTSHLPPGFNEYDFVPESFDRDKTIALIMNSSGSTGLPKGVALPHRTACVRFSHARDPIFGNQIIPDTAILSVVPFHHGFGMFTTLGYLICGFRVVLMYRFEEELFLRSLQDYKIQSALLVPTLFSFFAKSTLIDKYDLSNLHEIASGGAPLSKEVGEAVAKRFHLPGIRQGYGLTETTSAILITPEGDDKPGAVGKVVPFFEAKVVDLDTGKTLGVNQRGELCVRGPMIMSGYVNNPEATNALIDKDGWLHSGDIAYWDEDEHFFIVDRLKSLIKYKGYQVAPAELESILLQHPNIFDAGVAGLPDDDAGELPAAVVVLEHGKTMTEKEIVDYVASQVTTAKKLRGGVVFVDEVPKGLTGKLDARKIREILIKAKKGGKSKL

[29] = Luminescence Cell-Based Dose Confirmation HTS to Identify Inhibitors of Platelet Dense Granule Release. [Related pubchem assays: 1663 (Primary HTS), 1678 (Summary of Project)]; format: functional
BJ [30] = assay: cytotoxicity toward BJ-TERT-LT-ST fibroblasts, dose response, cell-based, RAS-independent, luminescence (AID 1935); format: functional; conditions: Homo sapiens;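 also: BJ fibroblasts immortalized with TERT plus LT and ST oncogenes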
[31] = cytotoxicity toward DRD oncogenic fibroblasts, dose response, cell-based, non-viral oncogenic, luminescence (AID 1934); format: functional; conditions: Homo sapiens
[32] = inhibitors of SNCA 5'UTR-driven translation, confirmation, luminescence, H4 neuroglioblastoma cells, dose confirmation (AID 2454); format: functional, cell-based;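 also: H4 neuroglioblastoma cells carrying an alpha-synuclein 5'UTR luciferase reporter; potency for inhibition of the luciferase signal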
Jurkat [33] = assay: antigen receptor-induced NF-kB inhibitors, dose response, Jurkat, luciferase reporter, luminescence, B- and T-cell (AID 489004); format: functional, cell-based; conditions: Homo sapiens;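 also: NF-kB luciferase reporter Jurkat cells stimulated with PMA plus ionomycin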
[34] = cytotoxicity in HEK-293T NF-kB-Luc cells, dose response, cytotoxicity control for B/T-cell NF-kB inhibitor project, cell-based, uHTS hits (AID 489019); format: functional;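 also: IC50 reflects cytotoxicity as loss of cell viability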
BJ [35] = assay: cytotoxicity toward Ras-transformed BJeLR fibroblasts, dose response, cell-based, alamar blue fluorescence, cherrypicked samples (AID 2631); format: functional; conditions: Homo sapiens;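 also: confirmatory dose-response assay in RAS-dependent BJ fibroblasts engineered with TERT, LT and ST, with cytotoxicity read by fluorescence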
INS1 = assay: beta cell apoptosis inhibitors, cytokine rescue, dose response, luminescence, retest (AID 449756); format: functional, cell-based; conditions: Rattus norvegicus;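 also: cell death triggered by IL-1 beta plus TNF-alpha plus IFN-gamma mixture; protective hits raise ATP signal compared with cytokine alone wells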
[36] = inhibitors of HIV Env-driven cell fusion, dose response, cherry-pick (AID 652057); format: functional, cell-based
[37] = CEM21 lymphoblast cell cytotoxicity, dose response, cytotoxicity control for viral fusion inhibitor project, CellTiter-Glo luminescence, cherry-picked (AID 652042); format: functional, cell-based;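 also: potency for signal decrease meaning cytotoxicity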
[38] = ZM109 Env clade C HIV-1 fusion inhibitors, dose response, HeLa effector, CEM target cells, luciferase, cherry-pick (AID 652058); format: functional, cell-based
[39] = off-target signal loss in HeLa-CEM21 co-culture – HeLa F-luc CTL cells, cherry-picked, counter-screen for HIV-1 Env fusion inhibitor project, dose response (AID 652040); format: functional, cell-based;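 also: potency for signal decrease marking cytotoxic or nonspecific inhibition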
[40] = inhibitors of clade B AD8 Env fusion, dose response, cell-based, cherry-pick (AID 652062); format: functional;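 also: luciferase signal from cell-cell fusion driven by HIV-1 clade B AD8 Env; potency is for inhibitors of fusion seen as a drop in luminescence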

Sequence of Beta Lactamase (Q932Y6 whole entry): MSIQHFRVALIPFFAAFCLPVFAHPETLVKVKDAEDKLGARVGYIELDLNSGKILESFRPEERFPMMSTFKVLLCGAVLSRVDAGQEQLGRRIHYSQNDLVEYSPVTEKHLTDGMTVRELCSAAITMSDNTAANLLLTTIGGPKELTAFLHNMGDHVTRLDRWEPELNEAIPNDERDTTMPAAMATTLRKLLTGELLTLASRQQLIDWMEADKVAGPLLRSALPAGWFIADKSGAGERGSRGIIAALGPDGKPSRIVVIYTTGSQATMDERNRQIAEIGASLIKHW

## Nc1ccc2ccc3cccc[n+]3c2c1.[O-][Cl+3]([O-])([O-])[O-]
Beta Lactamase
  IC50: 9.33 µM (active)
ORF 73
  AC50: 1.3 µM (active)
[1]
  AC50: 3.88 µM (active)
Insulin-degrading enzyme [2]
  EC50: > 54.7 µM (inactive)
Insulin-degrading enzyme [3]
  EC50: > 54.7 µM (inactive)
HEK293 [4]
  IC50: > 89.2 µM (inactive)
HEK293 [5]
  EC50: 6.89 µM (active)
[6]
  AC50: > 52 µM (inactive)
[7]
  AC50: 21.4 µM (active)
Cells [8]
  AC50: 27.3 µM (active)

## COc1ccc(C)cc1NC(=O)c1ccc([N+](=O)[O-])o1
HEK293 [9]
  IC50: > 80 µM (inactive)
Jurkat [10]
  IC50: 6.03 µM (active)
HEK293 [11]
  IC50: 75.6 µM (inactive)

## O=C(CCc1ccccc1)N1CCN(Cc2ccc(F)cc2Cl)CC1
Escherichia coli [12]
  AC50: 66.5 µM (active)

## COc1ccc(CNCCc2c[nH]c3ccccc23)c(OC)c1OC
HEK293 [13]
  EC50: > 59.6 µM (inactive)
HEK293 [14]
  EC50: > 59.6 µM (inactive)

## O=C(CSc1nnc(NC(=O)CN2CCOCC2)s1)Nc1ccccc1
[15]
  AC50: 47.5 µM (active)

## Cc1cc(Cl)ccc1NC(=O)CN1CCCC1
Escherichia coli [16]
  AC50: 40 µM (active)

## COc1cccc(C(=O)NC(=S)Nc2ccccc2N2CCOCC2)c1
[17]
  AC50: 20.1 µM (active)
[18]
  AC50: 33.5 µM (active)
[19]
  IC50: 6.01 µM (active)

## Nc1nc(F)nc2c1ncn2[C@@H]1O[C@H](CO)[C@@H](O)[C@H]1O
[20]
  EC50: 0.242 µM (active)
[21]
  EC50: 0.199 µM (active)
BJ [22]
  EC50: 0.124 µM (active)
Cells [23]
  EC50: 0.084 µM (active)
[24]
  EC50: < 0.1 µM (active)
[25]
  EC50: 5.46 µM (active)
[26]
  EC50: < 0.1 µM (active)
BJ [27]
  EC50: 1.35 µM (active)
[28]
  EC50: > 112 µM (not active)
[29]
  EC50: < 0.088 µM (active)
BJ [30]
  EC50: 0.46 µM (active)
[31]
  EC50: 0.674 µM (active)
[32]
  EC50: 0.07 µM (active)
Jurkat [33]
  IC50: 2.35 µM (active)
[34]
  IC50: > 80 µM (inactive)
BJ [35]
  EC50: 0.348 µM (active)
INS1
  AC50: 1.35 µM (active)
[36]
  AC50: 0.341 µM (active)
[37]
  AC50: 0.271 µM (active)
[38]
  AC50: < 0.26 µM (active)
[39]
  AC50: 1.4 µM (active)
[40]
  AC50: 1.92 µM (active)
